Measured values as given in PubChem BioAssay AID2060488 (Molecular Pharmacology Branch, DTP, NCI, 2025).
Several values for one entry are separate records, joined by “and”; a condition that tells them apart may be missing. Equal values may be shown once.

Tested on: 966289-007-R4-J1-PDC complex spheroid viability
Test: Anticancer human tumor 966289-007-R4-J1-PDC patient-derived pancreatic adenocarcinoma cell line growth inhibition [GQUAD]
Conditions: for viability, T/C: stronger effect = lower value; active means viability on the fitted dose curve at most 10% of control; inactive means the rest
Excerpt: DNA G-quadruplex Stabilizer Agents in Combinations in Complex Spheroids
A high-throughput screen of multi-cell type tumor spheroids was designed to identify active combinations of DNA G-quadruplex stabilizer agents and targeted small molecules. Complex spheroids include a stromal component modeled by human endothelial cells (HUVEC) and fibroblasts modeled by human mesenchymal stem cells (MSCs). The concentration ranges selected for each drug and investigational agent were based upon clinically achievable concentrations if the clinical Cmax of the agent was known.
Compounds. The drugs and investigational agents: pidnarulex (CX-5461; NSC782164), APTO-253 (NSC789042), BRACO-19 (NSC847499), peposertib (NSC802822), ceralasertib (NSC780249), elimusertib (NSC800525), camonsertib (NSC841442), AZD-1390 (NSC803789), olaparib (NSC753686), talazoparib (NSC767125), ART-558 (NSC835418), sotorasib (NSC818433), MRTX-1133 (NSC836407), SN-38 (NSC673596), topotecan (NSC609699), etoposide (NSC141540), doxorubicin (NSC123127), gemcitabine (NSC613327), 5-fluorouracil (NSC19893), paclitaxel (NSC125973), vemurafenib (NSC761431), panobinostat (NSC761190), R-306465 (JNJ-16241199; NSC773264), adavosertib (NSC754352), TP-3654 (NSC805149), carboplatin (NSC241240), KSQ-4279 (NSC840948), and staurosporine (NSC755774) were obtained from the National Cancer Institute (NCI) Developmental Therapeutics Program Chemical Repository (34). The FDA-approved anticancer drug set is available from the NCI Developmental Therapeutics Program. […] The stock solutions were prepared in dimethyl sulfoxide (DMSO, Sigma-Aldrich, St. Louis, MO, cat. D2650) at 800-fold the tested concentration and stored at -70 degrees C prior to their use. All drugs and investigational agents were tested over a range starting from a high concentration at or near the clinical Cmax and decreasing in half-log increments. If the clinical Cmax for an agent had not been determined, the highest concentration tested was 10 microM.
2.3 Cell Culture. All cells were maintained in an incubator at 37 degrees C and 5% CO2 with 95% humidity. The PDC lines were cultured according to standard operating procedures established by the NCI PDMR. All PDCs were thawed and cultured in Matrigel-coated flasks prepared with a working solution of 1X Ham's F-12 nutrient mix, without supplementation (Invitrogen, cat. 11765054), 100 U/mL penicillin-streptomycin (Invitrogen, cat. 15140122), and 2.5% Matrigel (Corning Inc., cat. 354248) for the first three passages. The 857933-349-R-J2-PDC line was cultured in 6C/Colon 1B media, which includes advanced DMEM/F-12 (Thermo Fisher Scientific, cat. 12634028), 10 mM HEPES (Thermo Fisher Scientific, cat. 15630080), 1X GlutaMAX supplement (Thermo Fisher Scientific, cat. 35050061), 0.1 mg/mL primocin (InvivoGen, cat. ant-pm-2), 10% defined fetal bovine serum, heat inactivated (HyClone Laboratories Inc., cat. SH30070.03HI), 50% L-WRN conditioned media (ATCC, cat. CRL-3276), 1.25 mM N-Acetyl-L-cysteine (Sigma-Aldrich, cat. A9165), 10 mM nicotinamide (Sigma-Aldrich, cat. N0636), 1X B-27 supplement (Thermo Fisher Scientific, cat. 17504044), 1X N-2 supplement (Thermo Fisher Scientific, cat. 17502048), 10 microM Y-27632 dihydrochloride (Tocris Bioscience, cat. 1254), and 50 ng/mL human EGF recombinant protein (Thermo Fisher Scientific, cat. PHG0311). The 485176-168-R4-J1-PDC line was cultured in Panc media, which includes all 6C/Colon 1B media components plus 100 ng/mL human FGF-10 (Thermo Fisher Scientific, cat. 100-26), 500 nM SB-431542 (Selleckchem, cat. S1067), and gastrin (Tocris, cat. 3006).
[…]
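Further: spheroids exposed to the agents for seven days before readout.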
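Wherever viability, T/C is given: percent viability relative to DMSO vehicle control wells taken as 100%.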

CC[C@@]1(O)C(=O)OCc2c1cc1n(c2=O)Cc2cc3c(CN(C)C)c(O)ccc3nc2-1
0.0465 µM and 0.0535 µM and 0.0319 µM: IC50 (curve of compound)
inactive: viability, T/C (compound 0.000999 µM) 88.3% and 105% and 97.2% | viability, T/C (compound 0.00316 µM) 92.3% and 95.7% and 100% | viability, T/C (compound 0.00999 µM) 108% and 105% and 110% | viability, T/C (compound 0.0316 µM) 74.9% and 90.5% and 50.4%
active: viability, T/C (compound 0.0999 µM) 0.78% and 1.86% and 0.73% | viability, T/C (compound 0.316 µM) 0.62% and 0.47% and 0.41%

Nc1ccn(C2OC(CO)C(O)C2(F)F)c(=O)n1 (stereo unspecified) + Cc1cnc(CNC(=O)c2c(=O)c3ccc(N4CCCN(C)CC4)nc3n3c2sc2ccccc23)cn1
active: viability, T/C (second compound 0.0316 µM, first compound 0.0316 µM) 2.51% | viability, T/C (second compound 0.0316 µM, first compound 0.1 µM) 0.72% | viability, T/C (second compound 0.0316 µM, first compound 0.316 µM) 0.68% | viability, T/C (second compound 0.0316 µM, first compound 1 µM) 0.69% | viability, T/C (second compound 0.0316 µM, first compound 3.16 µM) 0.58% | viability, T/C (second compound 0.0316 µM, first compound 10 µM) 0.61% | viability, T/C (second compound 0.1 µM, first compound 0.0316 µM) 4.19% | viability, T/C (second compound 0.1 µM, first compound 0.1 µM) 0.89% | viability, T/C (second compound 0.1 µM, first compound 0.316 µM) 0.87% | viability, T/C (second compound 0.1 µM, first compound 1 µM) 0.9% | viability, T/C (second compound 0.1 µM, first compound 3.16 µM) 0.77% | viability, T/C (second compound 0.1 µM, first compound 10 µM) 0.88% | viability, T/C (second compound 0.316 µM, first compound 0.0316 µM) 5.63% | viability, T/C (second compound 0.316 µM, first compound 0.1 µM) 1.42% | viability, T/C (second compound 0.316 µM, first compound 0.316 µM) 1.15% | viability, T/C (second compound 0.316 µM, first compound 1 µM) 0.95% | viability, T/C (second compound 0.316 µM, first compound 3.16 µM) 1.35% | viability, T/C (second compound 0.316 µM, first compound 10 µM) 1.02% | viability, T/C (second compound 1 µM, first compound 0.0316 µM) 3.58% | viability, T/C (second compound 1 µM, first compound 0.1 µM) 1.01% | viability, T/C (second compound 1 µM, first compound 0.316 µM) 0.82% | viability, T/C (second compound 1 µM, first compound 1 µM) 0.79% | viability, T/C (second compound 1 µM, first compound 3.16 µM) 0.88% | viability, T/C (second compound 1 µM, first compound 10 µM) 0.78% | viability, T/C (second compound 3.16 µM, first compound 0.0316 µM) 2.86% | viability, T/C (second compound 3.16 µM, first compound 0.1 µM) 0.11% | viability, T/C (second compound 3.16 µM, first compound 0.316 µM) 0.1% | viability, T/C (second compound 3.16 µM, first compound 1 µM) 0.06% | viability, T/C (second compound 3.16 µM, first compound 3.16 µM) 0.32% | viability, T/C (second compound 3.16 µM, first compound 10 µM) 0.67% | viability, T/C (second compound 10 µM, first compound 0.0316 µM) 0.04% | viability, T/C (second compound 10 µM, first compound 0.1 µM) 0.07% | viability, T/C (second compound 10 µM, first compound 0.316 µM) 0.09% | viability, T/C (second compound 10 µM, first compound 1 µM) 0.07% | viability, T/C (second compound 10 µM, first compound 3.16 µM) 0.92% | viability, T/C (second compound 10 µM, first compound 10 µM) 0.6%
< 0.0316 µM: IC50 (curve of first compound, second compound 0.0316 µM) | IC50 (curve of first compound, second compound 0.1 µM) | IC50 (curve of first compound, second compound 0.316 µM) | IC50 (curve of first compound, second compound 1 µM) | IC50 (curve of first compound, second compound 3.16 µM) | IC50 (curve of first compound, second compound 10 µM)

CC1COCCN1c1cc(-c2ccnn2C)c2ccnc(-c3ccn[nH]3)c2n1 (stereo unspecified)
0.163 µM and 0.231 µM and 0.176 µM: IC50 (curve of compound)
inactive: viability, T/C (compound 0.0316 µM) 112% and 106% and 104% | viability, T/C (compound 0.1 µM) 75.1% and 95% and 82.1% | viability, T/C (compound 0.316 µM) 15.9% and 32.8% and 16.8%
active: viability, T/C (compound 1 µM) 6.65% and 12.3% and 6.94% | viability, T/C (compound 3.16 µM) 4.32% and 6.18% and 4.41% | viability, T/C (compound 10 µM) 3.06% and 4.67% and 3.7%
